Several values for one entry are separate records, joined by “and”; a condition that tells them apart may be missing. Equal entries are not always repeated. Marks after values point to notes of the source that are not given here.
Legend:
[1] = test system: Left anterior descending coronary artery (LAD); test: Transthoracic doppler echocardiography (TTDE) flow velocity measurements at rest and under pharmacologic stress; assay type: in vivo, human; settings: for Average Optimal Effect Duration: combined with adenosine bolus
From the text: The value of absolute coronary blood flow (CBF) may be substituted by the value of CBF velocity (peak and mean velocities). […] Given that blood flow=velocity flow×cross section, if cross section is constant, velocity variations reflect blood flow variations.
TTDE is a non invasive approach conducted under the same conditions as for thallium or technetium scintigraphy (intravenous injection) and another way to study Coronary Flow Reserve (CFR).

patients = settings: cited from earlier work
coronary hyperaemia = settings: cited from earlier work
[2] = Table 1: same coronary patient, 5 studies, second data of cell, adenosine 140 μg/kg/min 2 minute infusion, combination 30 second IV bolus
[3] = bolus independently of the patient's weight

Nc1ncnc2c1ncn2[C@@H]1O[C@H](CO)[C@@H](O)[C@H]1O [Adenosine, adenosine]
DOE = Duration of optimal effect ([1]; Table 1: same coronary patient): 60 to 90 s | RBL = Return to base line ([1]; Table 1: same coronary patient): 40 to 50 s | TTP = Time to peak ([1]; Table 1: same coronary patient): 40 to 50 s | MV = Mean Velocity, under stress conditions [1, 2]: 78 cm/s and 80 cm/s and 82 cm/s and 75 cm/s and 74 cm/s | PV = Peak Velocity, under stress conditions [1, 2]: 108 cm/sec and 96 cm/sec and 98 cm/sec and 105 cm/sec | CR (based on MV) ([1]; Table 2: three different coronary patients, one line per patient, listed as St. Adenosine): 2.12 and 2.36 and 2.88 | MV (mean velocity), under stress conditions ([1]; Table 2: three different coronary patients, one line per patient, second data of cell, St. adenosine 140 μg/kg/min infusion about 2 minutes, combination IV 30 second bolus): 50 cm/s and 33 cm/s and 75 cm/s | adverse reaction: flushing (patients; adenosine infusion, most frequently reported): 44% | Other side effects, incidence (patients; adenosine infusion): below 10% | adverse reaction: chest pain or chest discomfort (patients; adenosine infusion): 40% | adverse reaction: dyspnoea (patients; adenosine infusion): 28% | adverse reaction: gastrointestinal discomfort (patients; adenosine infusion): 13% | adverse reaction: headache (patients; adenosine infusion): 18% | adverse reaction: throat or neck or jaw discomfort (patients; adenosine infusion): 15% | time to near-maximal vasodilatation, on average (coronary hyperaemia; infusion): 60 s

OCCN(CCO)c1nc(N2CCCCC2)c2nc(N(CCO)CCO)nc(N3CCCCC3)c2n1 [Dipyridamole, dipyridamole]
Average Optimal Effect Duration ([1]; Dipyridamole dose 9 mg, regardless of the dose of adenosine): 30 to 40 s | Average Optimal Effect Duration ([1]; Dipyridamole dose 10 mg, regardless of the dose of adenosine): 40 to 50 s | Average Optimal Effect Duration ([1]; Dipyridamole dose 12 mg, regardless of the dose of adenosine): 40 to 90 s | Average Optimal Effect Duration ([1]; Dipyridamole dose 14 mg, prolongs side effects when they occur): 60-100** sec | coronary effect and side effect ([1]; alone as a 12 mg or 14 mg bolus): no coronary effect and no side effect | coronary effect or symptom ([1]; injected as a bolus alone at the dose of 12 mg (n=5 patients)): does not induce any significant coronary effect or symptom | duration of peak of activity (coronary hyperaemia; in vivo): 20 to 30 min

Nc1nc(N/N=C/C2CCCCC2)nc2c1ncn2[C@@H]1O[C@H](CO)[C@@H](O)[C@H]1O [binodenoson]
duration of action (coronary hyperaemia; in vivo): 10 ± 6 min

CNC(=O)c1cnn(-c2nc(N)c3ncn([C@@H]4O[C@H](CO)[C@@H](O)[C@H]4O)c3n2)c1 [regadenoson]
side effects as compared to the reference drug Adenoscan (adenosine) (patients; in vivo): increase in dyspnea, headache and gastrointestinal disorders | efficacy and tolerance at 500 μg (coronary hyperaemia; [3]): same efficacy as 400 μg but tolerance is worst | efficacy threshold dose in many but not all patients (coronary hyperaemia; [3]): 300 µg | dose efficient in all patients (coronary hyperaemia; bolus independently of the patient's weight, marketed dose): 400 µg | time after which coronary hyperaemia is induced (coronary hyperaemia; in vivo): 30 s
